ChEMBL document CHEMBL4014278, “Discovery of uracil-bearing DAPYs derivatives as novel HIV-1 NNRTIs via crystallographic overlay-based molecular hybridization” (Eur J Med Chem, 2017)
Converted amounts (≈) assume the structure as drawn. Where a name gives a salt, the structure may show the parent alone.

Experiments:
[1] = test system: Human immunodeficiency virus 1; assay: Antiviral activity against wild-type HIV1 3B infected in human MT4 cells assessed as protection against virus-induced cytopathic effect measured at 5 days post infection by MTT assay; format: functional, cell-based; details: Human immunodeficiency virus 1, 3B, MT4, 120 h
[2] = test system: Human immunodeficiency virus 1; assay: Antiviral activity against HIV1 RES056 harboring K103N/Y181C double mutant infected in human MT4 cells assessed as protection against virus-induced cytopathic effect measured at 5 days post infection by MTT assay; format: functional, cell-based; details: Human immunodeficiency virus 1, RES056, MT4, 120 h
[3] = test system: Human immunodeficiency virus 2; assay: Antiviral activity against HIV-2 ROD infected in human MT4 cells assessed as protection against virus-induced cytopathic effect measured at 5 days post infection by MTT assay; format: functional, cell-based; details: Human immunodeficiency virus 2, ISOLATE ROD, MT4, 120 h
[4] = Cytotoxicity against human MT4 cells after 5 days by MTT assay; format: cell-based
[5] = Selectivity index, ratio of CC50 for human MT4 cells to EC50 for wild-type HIV1 3B infected in human MT4 cells; format: toxicity, cell-based; details: read-out: Ratio CC50/EC50
[6] = test system: Human immunodeficiency virus 1; assay: Antiviral activity against HIV1 NL4-3; format: functional; details: Human immunodeficiency virus 1, NL4-3
[7] = Solubility of the compound in phosphate buffer at pH 7.4 after 2 hrs by UV-HPLC method; format: physicochemical
[8] = test system: Human immunodeficiency virus 1; assay: Antiviral activity against HIV1 harboring L100I mutant infected in human MT4 cells assessed as protection against virus-induced cytopathic effect measured at 5 days post infection by MTT assay; format: functional, cell-based; details: Human immunodeficiency virus 1, MT4, 120 h
[9] = test system: Human immunodeficiency virus 1; assay: Antiviral activity against HIV1 harboring K103N mutant infected in human MT4 cells assessed as protection against virus-induced cytopathic effect measured at 5 days post infection by MTT assay; format: functional, cell-based; details: Human immunodeficiency virus 1, MT4, 120 h
[10] = test system: Human immunodeficiency virus 1; assay: Antiviral activity against HIV1 harboring Y181C mutant infected in human MT4 cells assessed as protection against virus-induced cytopathic effect measured at 5 days post infection by MTT assay; format: functional, cell-based; details: Human immunodeficiency virus 1, MT4, 120 h
[11] = test system: Human immunodeficiency virus 1; assay: Antiviral activity against HIV1 harboring Y188L mutant infected in human MT4 cells assessed as protection against virus-induced cytopathic effect measured at 5 days post infection by MTT assay; format: functional, cell-based; details: Human immunodeficiency virus 1, MT4, 120 h
[12] = test system: Human immunodeficiency virus 1; assay: Antiviral activity against HIV1 harboring E138K mutant infected in human MT4 cells assessed as protection against virus-induced cytopathic effect measured at 5 days post infection by MTT assay; format: functional, cell-based; details: Human immunodeficiency virus 1, MT4, 120 h
[13] = test system: Human immunodeficiency virus 1; assay: Antiviral activity against HIV1 harboring F227L/V106A double mutant infected in human MT4 cells assessed as protection against virus-induced cytopathic effect measured at 5 days post infection by MTT assay; format: functional, cell-based; details: Human immunodeficiency virus 1, MT4, 120 h
[14] = test system: Human immunodeficiency virus 1; assay: Fold resistance, ratio of EC50 for HIV1 harboring L100I mutant infected in human MT4 cells to EC50 for wild-type HIV1 3B infected in human MT4 cells; format: functional
[15] = test system: Human immunodeficiency virus 1; assay: Fold resistance, ratio of EC50 for HIV1 harboring K103N mutant infected in human MT4 cells to EC50 for wild-type HIV1 3B infected in human MT4 cells; format: functional
[16] = test system: Human immunodeficiency virus 1; assay: Fold resistance, ratio of EC50 for HIV1 harboring Y181C mutant infected in human MT4 cells to EC50 for wild-type HIV1 3B infected in human MT4 cells; format: functional
[17] = test system: Human immunodeficiency virus 1; assay: Fold resistance, ratio of EC50 for HIV1 harboring Y188L mutant infected in human MT4 cells to EC50 for wild-type HIV1 3B infected in human MT4 cells; format: functional
[18] = test system: Human immunodeficiency virus 1; assay: Fold resistance, ratio of EC50 for HIV1 harboring E138K mutant infected in human MT4 cells to EC50 for wild-type HIV1 3B infected in human MT4 cells; format: functional
[19] = Inhibition of wild-type HIV1 reverse transcriptase assessed as decrease in biotin-dUTP incorporation using poly(A)/oligo(dT)15 as template/primer after 1 hr by ELISA; parameters: species or system Human immunodeficiency virus 1
[20] = n-Octanol/water partition coefficient, log P of the compound after 2 hrs by HPLC method; format: physicochemical
[21] = Solubility of the compound in phosphate buffer at pH 2 after 2 hrs by UV-HPLC method; format: physicochemical
[22] = Solubility of the compound in water at pH 7.4; format: physicochemical
[23] = Solubility of the compound in 0.1 N HCl at pH 2; format: physicochemical
[24] = Lipophilicity, log P of the compound; format: physicochemical; details: octanol/water

Row | Compound | EC50 [1] | EC50 [2] | EC50 [3] | CC50 at 120 h [4] | selectivity ratio [5] | also measured
1 | Cc1cc(/C=C/C#N)cc(C)c1Oc1cc(Cl)nc(NCCn2ccc(=O)[nH]c2=O)n1 | 0.12 µM | > 285 µM | > 285 µM | > 285 µM | > 2270 | –
2 | Cc1cc(C#N)cc(C)c1Oc1nc(Nc2ccc(C#N)cc2)nc2[nH]ccc12 | – | – | – | – | – | EC50 [6]: 0.00053 µM
3 | Cc1cc(/C=C/C#N)cc(C)c1Oc1ccnc(NCCn2ccc(=O)[nH]c2=O)n1 | 0.034 µM | > 309 µM | > 309 µM | > 309 µM | > 9100 | solubility at 2 h [7]: < 1 µg/mL
4 | Cc1cc(C#N)cc(C)c1Oc1cc(NCCn2ccc(=O)[nH]c2=O)nc(Cl)n1 | 9.38 µM | > 27.9 µM | > 27.9 µM | 27.9 µM | 3 | –
5 | Cc1cc(/C=C/C#N)cc(C)c1Oc1nc(NCCn2ccc(=O)[nH]c2=O)ncc1Cl | 0.0056 µM | 23.3 µM | > 285 µM | > 285 µM | > 50500 | EC50 [8]: 0.43 µM; EC50 [9]: 0.086 µM; EC50 [10]: 0.15 µM; EC50 [11]: 52 µM; EC50 [12]: 0.034 µM; EC50 [13]: ≥ 96.6 µM; Ratio EC50 [14]: 77; Ratio EC50 [15]: 15; Ratio EC50 [16]: 27; Ratio EC50 [17]: 9277; Ratio EC50 [18]: 6; IC50 [19]: 1.58 µM; solubility at 2 h [7]: < 0.1 µg/mL
6 | Cc1cc(C)c(Oc2cc(Cl)nc(NCCn3ccc(=O)[nH]c3=O)n2)c(C)c1 | 0.52 µM | > 44.1 µM | > 44.1 µM | 44.1 µM | 85 | –
7 | Cc1cc(C)cc(Oc2cc(Cl)nc(NCCn3ccc(=O)[nH]c3=O)n2)c1 | > 56.5 µM | – | > 56.5 µM | > 56.5 µM | > 1 | –
8 | Cc1cc(C)c(Oc2cc(NCCn3ccc(=O)[nH]c3=O)nc(Cl)n2)c(C)c1 | > 42.3 µM | – | > 76.4 µM | 76.4 µM | ≤ 2 | –
9 | Cc1cc(C)c(Nc2nc(NCCn3ccc(=O)[nH]c3=O)ncc2[N+](=O)[O-])c(C)c1 | 0.083 µM | > 3.33 µM | > 3.33 µM | ≥ 3.33 µM | ≥ 40 | –
10 | Cc1cc(C)cc(Oc2cc(NCCn3ccc(=O)[nH]c3=O)nc(Cl)n2)c1 | > 99.5 µM | – | > 99.5 µM | 99.5 µM | < 1 | –
11 | Cc1cc(C)cc(Oc2ccnc(NCCn3ccc(=O)[nH]c3=O)n2)c1 | 48.8 µM | > 74.8 µM | > 74.8 µM | 74.8 µM | 2 | –
12 | O=C1Nc2ccc(Cl)cc2[C@@](C#CC2CC2)(C(F)(F)F)O1 [EFAVIRENZ] | – | – | – | > 6.34 µM | – | EC50 [8]: 0.1 µM; EC50 [10]: 0.0068 µM; EC50 [11]: 0.34 µM; EC50 [13]: 0.21 µM
13 | Cc1cc(C#N)cc(C)c1Oc1cc(Cl)nc(NCCn2ccc(=O)[nH]c2=O)n1 | 7.73 µM | > 20.6 µM | > 20.6 µM | 20.6 µM | 3 | –
14 | Cc1cc(C#N)cc(C)c1Oc1cc(N)nc(NCCn2ccc(=O)[nH]c2=O)n1 | 18.9 µM | > 204 µM | > 204 µM | 204 µM | 11 | –
15 | Cc1cc(C)cc(Oc2cc(N)nc(NCCn3ccc(=O)[nH]c3=O)n2)c1 | > 45.8 µM | – | > 127 µM | 127 µM | < 1 | –
16 | Cc1cc(C)c(Oc2nc(NCCn3ccc(=O)[nH]c3=O)ncc2Cl)c(C)c1 | 0.0078 µM | > 2.49 µM | > 2.49 µM | 2.49 µM | 317 | –
17 | Cc1cc(C#N)cc(C)c1Oc1nc(NCCn2ccc(=O)[nH]c2=O)ncc1Cl | 0.046 µM | > 11.7 µM | > 11.7 µM | > 11.7 µM | ≥ 255 | –
18 | Cc1cn([C@H]2C[C@H](N=[N+]=[N-])[C@@H](CO)O2)c(=O)[nH]c1=O [ZIDOVUDINE] | – | 0.0071 µM | – | > 7.48 µM | > 1050 | EC50 [9]: 0.0083 µM; EC50 [10]: 0.0071 µM; EC50 [11]: 0.011 µM; EC50 [12]: 0.013 µM; EC50 [13]: 0.005 µM
19 | Cc1cc(C)cc(Oc2nc(NCCn3ccc(=O)[nH]c3=O)ncc2Cl)c1 | 0.88 µM | > 322 µM | > 322 µM | > 322 µM | > 367 | –
20 | CC(C)Nc1cccnc1N1CCN(C(=O)c2cc3cc(NS(C)(=O)=O)ccc3[nH]2)CC1 [DELAVIRDINE MESYLATE] | – | 0.032 µM | – | 30.4 µM | – | EC50 [8]: 2.1 µM; EC50 [10]: 2.04 µM; EC50 [11]: 0.69 µM; EC50 [12]: 0.043 µM
21 | Cc1cc(C)c(Oc2nc(Cl)ncc2NCCn2ccc(=O)[nH]c2=O)c(C)c1 | > 2.89 µM | > 2.89 µM | > 2.89 µM | 2.89 µM | < 1 | –
22 | Cc1cc(C)c(Nc2nc(NCCn3ccc(=O)[nH]c3=O)ncc2N)c(C)c1 | 14.9 µM | > 299 µM | > 299 µM | > 199 µM | > 20 | –
23 | Cc1cc(C)c(Oc2cc(N)nc(NCCn3ccc(=O)[nH]c3=O)n2)c(C)c1 | 2.7 µM | > 119 µM | > 119 µM | 119 µM | 44 | –
24 | Cc1cc(C#N)cc(C)c1Oc1ccnc(NCCn2ccc(=O)[nH]c2=O)n1 | 6.66 µM | > 35.8 µM | > 35.8 µM | 35.8 µM | 5 | logP at 2 h [20]: -0.11; solubility at 2 h [7]: 62.9 µg/mL (≈ 166 µM); solubility at 2 h [21]: > 100 µg/mL
25 | Cc1cc(C)c(Oc2ccnc(NCCn3ccc(=O)[nH]c3=O)n2)c(C)c1 | 0.53 µM | > 272 µM | > 272 µM | 272 µM | 515 | –
26 | Cc1cc(C#N)cc(C)c1Oc1nc(NCCn2ccc(=O)[nH]c2=O)nc(N)c1Br | 0.034 µM | > 265 µM | > 265 µM | > 265 µM | > 7680 | –
27 | Cc1ccnc2c1NC(=O)c1cccnc1N2C1CC1 [NEVIRAPINE] | – | 0.26 µM | – | > 15 µM | – | EC50 [8]: 0.83 µM; EC50 [10]: 6.22 µM; EC50 [11]: 9.61 µM; IC50 [19]: 1.39 µM
28 | Cc1cc(C#N)cc(C)c1Oc1nc(Nc2ccc(C#N)cc2)nc(N)c1Br [ETRAVIRINE] | – | 0.0034 µM | – | – | – | EC50 [8]: 0.0066 µM; IC50 [19]: 1 µM; solubility [22]: < 1 µg/mL; solubility [23]: < 1 µg/mL; logP [24]: > 5
29 | Cc1cc(/C=C/C#N)cc(C)c1Oc1cc(N)nc(NCCn2ccc(=O)[nH]c2=O)n1 | 0.17 µM | > 298 µM | > 298 µM | > 298 µM | > 1740 | logP at 2 h [20]: 1.21; EC50 [8]: 21.9 µM; EC50 [9]: 0.53 µM; EC50 [10]: 4.82 µM; EC50 [11]: > 298 µM; EC50 [12]: 0.83 µM; EC50 [13]: > 298 µM; Ratio EC50 [14]: 129; Ratio EC50 [15]: 3; Ratio EC50 [16]: 28; Ratio EC50 [17]: >1753; Ratio EC50 [18]: 5; solubility at 2 h [7]: 0.43 µg/mL (≈ 1.03 µM); solubility at 2 h [21]: 91.7 µg/mL (≈ 219 µM)
30 | Cc1cc(C=CC#N)cc(C)c1Oc1cc(NCCn2ccc(=O)[nH]c2=O)nc(Cl)n1 | 5.81 µM | – | > 26.2 µM | 26.2 µM | 5 | –
